Legend:
[1] = system: rat left atrial appendage; test: 2-APB-induced spontaneous mechanical activity (SMA/SMEs) in isolated superfused rat left atria / left atrial appendage; settings: 3 Hz paced; data not shown
Description: Left atria were isolated from male Sprague-Dawley rats (325 to 400 g) under IP pentobarbital anesthesia (0.1 g/kg). Isolated left atria were superfused at 30° C. in Krebs-Henseleit (KH) buffer of the following mM composition: NaCl, 118; NaHCO3, 27; KCl, 4.8; MgSO4, 1.2; KH2PO4, 1.0; CaCl2, 1.8; and glucose, 11.1. Nearly isometric left atrial forces of contraction were measured as described.
Isolated superfused left atria were paced at 3 Hz. 2-APB was added to atrial superfusates from 0.015 or 0.15M DMSO stock solutions to achieve concentrations of 0, 2, 7.5, 15, or 22 μM (n=5 to 10 atria per concentration). Changes in atrial mechanical force were recorded during a subsequent 15 min superfusion.
Two groups of 5 to 6, 3 Hz paced atria were superfused in KH and exposed to 0 or 15 μM 2-APB for 10 min. The pacing stimulus was interrupted for 5 min and the number of spontaneous mechanical events (SMEs), defined as increases in mechanical force occurring in the absence of pacing, were measured as was the postrest potentiation response (PRP).
To determine whether diastolic interval affected the interaction between 2-APB and left atria, atrial pacing was decreased to 0.1 Hz, and 0, 7.5, or 22 μM 2-APB was added to the superfusate (n=6-8 per group). Superfusions continued for 15 min, and changes in atrial mechanical function were observed.
To establish whether SMA was reversible, atria (n=7) were paced at 0.1 Hz, exposed to 15 μM 2-APB for 10 min, and washed with KH. The effect of removing 2-APB on atrial mechanical function was recorded.
To test whether an anion transport inhibitor affected SMA, atria (n=7) were paced at 0.1 Hz in KH and exposed to 15 μM 2-APB. Following the appearance of SMA, they were titrated with 100 to 400 μM DIDS for 3 to 5 min at each concentration. Whether SMA occurred at the end of each titration period was recorded.
Left atria (n=10 per group) were paced at 0.1 Hz and treated with (i) 20 μM 2-APB for 10 min, (ii) with 30 nM isoproterenol for 5 min followed by 20 μM 2-APB for 10 min, and (iii) with 3 μM forskolin for 5 min followed by 20 μM 2-APB for 10 min.
The appendages then were titrated with increasing concentrations of 2-APB, and SMA was measured and recorded.
(§1) To determine the anti-arrhythmic activity of gossypol, isolated rat left atrial appendage and right ventricular muscle strips were used as model systems, as described above. Heart muscle was exposed to 20 μM 2-APB for 10 min to induce SMA, and rates of SMA were recorded as a percentage of initial SMA. The muscles then were titrated with up to 5 increasing concentrations of gossypol. Rates of SMA were recorded ˜10 min after the addition of concentration of the polyphenol.
To determine whether EGCG can prevent arrhythmia, rat left atrial appendages (n=9) were exposed to 20 μM 2-APB and rates of SMA were recorded. Groups of muscles (n=6 per) were pre-treated with 30 μM EGCG for 10 min following which they were exposed to 2-APB. Rates of SMA were recorded 10 min later.
as §1, with “whether EGCG is effective to reverse arrhythmia,” for “the anti-arrhythmic activity of gossypol,”, “Rat left atrial appendages were” for “Heart muscle was”, “left atrial appendages” for “muscles”, “the following polyphenols: EGCG, gossypol, resveratrol, and quercetin.” for “gossypol.”
To determine whether EGC can prevent arrhythmia, left atrial appendages (n=9) were exposed to 20 μM 2-APB and rates of SMA were recorded. Groups of appendages (n=6 per) were pre-treated with 30 μM EGC for 10 min following which they were exposed to 2-APB.

[2] = system: right ventricular muscle strips and right or left ventricular papillary muscles; test: Ventricular muscle model of SMA and STA; parameters: species or system rat; settings: paced at 0.5 Hz, added to the superfusate in appropriate amounts
From the text: To further establish this model as a general test for arrhythmic and anti-arrhythmic agents, right ventricular muscle strips and right or left ventricular papillary muscles were isolated from anesthetized rats as cardiac muscle exemplars using methods known to persons skilled in the art. Additional exemplars could include ventricular or atrial conduction system cells and the SAN itself. These muscles were then superfused as described above and paced at 0.5 Hz.

[3] = system: rat left atrial appendage; test: ATXII-induced triggered activity and transition to automaticity in left atrial appendage
From the text: There are two types of afterdepolarizations; early afterdepolarizations (EADs) that occur early during repolarization and delayed afterdepolarizations (DADs) that occur in fully repolarized, resting myocytes (FIG. 4). Both EADs and DADs are defined as “triggered” activities as they require a preceding normal action potential to occur (FIG. 3B). One model to elicit EADs is to expose heart muscle or myocytes to Anemonia sulcata Toxin II (ATX II). This 47 amino acid peptide specifically enhances late sodium current and prolongs the action potential duration (FIG. 3D; middle panel). This leads to calcium loading of heart muscle followed by EADs during phase 2 or phase 3 of the action potential (FIGS. 3D & 5). These EADs, if of sufficient magnitude, produce ectopic mechanical events (FIG. 3B; ‡).
In embodiments of the assay an agent to induce arrhythmia will be introduced in the muscle. The arrhythmic agent may be chemical or physical. If the agent is chemical, it can be any chemical agent known by those skilled in the art to induce arrhythmia. The chemical agent will be introduced at a concentration sufficient to induce arrhythmia. If a certain type of arrhythmia is the subject of the assay (for example, triggered activity, tachycardia or any other type of arrhythmia), then the agent should be present at a concentration sufficient to produce the certain type of arrhythmia. One acceptable agent is anemone toxin II (“ATX II,”), the toxin of Anemone sulcata. ATX II is a sodium channel regulator.
It was tested whether the altered voltage-independent calcium homeostasis which 2-APB provokes is sufficient to initiate frank automaticity from triggered activity.

Molecule | SMEs per min compared with 2-APB [1] | ventricular SMA [2] | ATXII concentration provoking automatic activity [3] [nM] | effect on action potential ([3]; 30 nM ATXII, paced at 1 Hz) | ATXII concentration inducing triggered activity / aftercontractions ([3]; paced left atrial appendages) [nM]
c1ccc(B(OB(c2ccccc2)c2ccccc2)c2ccccc2)cc1 [diphenyl boronic anhydride] | gave similar results | ventricular SMA was observed |  |  | 
ATXII: 47 amino acid peptide that enhances late sodium current and prolongs action potential duration |  |  | > 50 | prolongs action potential duration | < 50

Source: patent US20110144125A1, “Anti-Arrhythmia Agents, Methods of Their Use, Methods of Their Identification and Kits Therefore” (THE UAB RESEARCH FOUNDATION, priority 2008, published 2011)
